According to patent publication US20230219979A1, “PYRAZOLO[1,5-a]PYRIDINE COMPOUND, PREPARATION METHOD THEREFOR AND USE THEREOF” (SHENZHEN ZHONGGE BIOLOGICAL TECHNOLOGY CO., LTD., priority 2019, published 2023):
Like-named read-outs stand apart in the source and are kept apart here.

Columns and labels:
[1] = target: Wild-type RET kinase (Homo sapiens, UniProt P07949); assay: HTRF method for testing the inhibitory activity of compounds against RET; type: biochemical
[2] = target: T1, Ba/F3-KIF5B-RET cell (Homo sapiens, UniProt P07949); assay: CellTiter-Glo luminescence assay, inhibitory activity against Ba/F3-KIF5B-RET cell; type: cell-based; details: 72 h, read-out: Ba/F3-KIF5B-RET cell activity
T1 construct: fused on or other part: P33176 (Kinesin-1 heavy chain)
Source text: (C) In Vitro Screening Experiment - CellTiter-Glo Luminescence Assay for Testing The inhibitory activity of compounds against Ba/F3-KIF5B-RET cell
• 1. The mammalian cell expression vector containing human KIF5B-RET cDNA was introduced into Ba/F3 cells using the Neon® transfection system method, and the surviving clones screened by puromycin were subjected to cell growth inhibitory function experiments and Western blotting to verify cell lines with stable and high expression of RET. • 2. Cells were cultured in RPMI 1640 medium containing 10% fetal bovine serum, 1% penicillin-streptomycin, and 2 µg/mL puromycin, and then placed in a 37° C., 5% carbon dioxide cell incubator. • 3. The test compound (5 mM stock) was diluted 2.5 folds to […] with 100% dimethyl sulfoxide; and the compound was diluted into 10 concentrations at an equal ratio of 1:3 in a 384-well dilution plate. • 4. 0.2 µL of the serially diluted compound was added to a 384-well cell culture plate (Corning, 3570) using an Echo 550 pipetting system, 2 replicate wells for each concentration, and the final concentration of dimethyl sulfoxide was 0.5% (v/v). The gradient concentrations of the test compound were 5000, 1666.7, 555.5, 185.18, 61.72, 20.57, 6.858, 2.286, 0.764, 0.254 nM. • 5. 40 µL of Ba/F3-KIF5B-RET cell suspension containing 800 cells was added to each well, and incubated for 72 h in a 5% CO2 cell incubator. • 6. 20 µL of Cell Titer-Glo reagent was added to each well of the cell culture plate, and the culture system was then shaken and mixed thoroughly for 2 min to lyse the cells, the cells were then incubated at room temperature for 30 min, and the […] signal values were then read with an Envision 2104 microplate reader. • 7. By fitting the data with XLFit 5.0 based on the parameters formula, the IC50 value was calculated as: • [formula]

[3] = HTRF, read-out: Wild-type RET kinase

Chain of Wild-type RET kinase (P07949 29-1114): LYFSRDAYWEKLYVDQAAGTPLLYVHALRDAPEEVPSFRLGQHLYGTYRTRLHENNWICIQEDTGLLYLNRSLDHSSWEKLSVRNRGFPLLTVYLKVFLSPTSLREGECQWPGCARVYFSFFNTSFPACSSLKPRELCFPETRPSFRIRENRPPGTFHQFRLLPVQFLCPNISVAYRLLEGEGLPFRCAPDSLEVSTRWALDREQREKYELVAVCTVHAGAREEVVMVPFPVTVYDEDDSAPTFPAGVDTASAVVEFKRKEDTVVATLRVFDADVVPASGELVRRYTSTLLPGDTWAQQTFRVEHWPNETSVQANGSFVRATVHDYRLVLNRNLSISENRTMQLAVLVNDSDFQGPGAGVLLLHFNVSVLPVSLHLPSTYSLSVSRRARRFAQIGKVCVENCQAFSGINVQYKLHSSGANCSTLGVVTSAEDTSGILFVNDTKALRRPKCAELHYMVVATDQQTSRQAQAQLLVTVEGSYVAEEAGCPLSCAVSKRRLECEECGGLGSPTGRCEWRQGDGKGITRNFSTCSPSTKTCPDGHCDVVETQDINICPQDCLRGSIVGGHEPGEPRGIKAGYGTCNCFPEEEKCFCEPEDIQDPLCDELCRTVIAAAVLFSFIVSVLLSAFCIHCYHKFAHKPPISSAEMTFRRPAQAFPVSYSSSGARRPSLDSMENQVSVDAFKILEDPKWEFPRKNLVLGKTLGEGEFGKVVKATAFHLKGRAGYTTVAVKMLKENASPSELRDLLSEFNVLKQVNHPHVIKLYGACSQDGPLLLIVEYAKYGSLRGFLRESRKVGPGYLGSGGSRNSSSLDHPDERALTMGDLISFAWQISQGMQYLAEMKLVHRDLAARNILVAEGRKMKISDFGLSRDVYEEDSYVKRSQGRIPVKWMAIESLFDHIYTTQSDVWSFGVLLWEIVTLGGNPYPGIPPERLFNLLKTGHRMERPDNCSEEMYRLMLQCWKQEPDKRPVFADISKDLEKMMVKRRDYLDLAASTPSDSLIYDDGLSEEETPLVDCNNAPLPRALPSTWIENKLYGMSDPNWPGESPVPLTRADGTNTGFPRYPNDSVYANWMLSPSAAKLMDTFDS
T1 sequence (P07949 whole entry, stated change not applied, the tested form may be a part): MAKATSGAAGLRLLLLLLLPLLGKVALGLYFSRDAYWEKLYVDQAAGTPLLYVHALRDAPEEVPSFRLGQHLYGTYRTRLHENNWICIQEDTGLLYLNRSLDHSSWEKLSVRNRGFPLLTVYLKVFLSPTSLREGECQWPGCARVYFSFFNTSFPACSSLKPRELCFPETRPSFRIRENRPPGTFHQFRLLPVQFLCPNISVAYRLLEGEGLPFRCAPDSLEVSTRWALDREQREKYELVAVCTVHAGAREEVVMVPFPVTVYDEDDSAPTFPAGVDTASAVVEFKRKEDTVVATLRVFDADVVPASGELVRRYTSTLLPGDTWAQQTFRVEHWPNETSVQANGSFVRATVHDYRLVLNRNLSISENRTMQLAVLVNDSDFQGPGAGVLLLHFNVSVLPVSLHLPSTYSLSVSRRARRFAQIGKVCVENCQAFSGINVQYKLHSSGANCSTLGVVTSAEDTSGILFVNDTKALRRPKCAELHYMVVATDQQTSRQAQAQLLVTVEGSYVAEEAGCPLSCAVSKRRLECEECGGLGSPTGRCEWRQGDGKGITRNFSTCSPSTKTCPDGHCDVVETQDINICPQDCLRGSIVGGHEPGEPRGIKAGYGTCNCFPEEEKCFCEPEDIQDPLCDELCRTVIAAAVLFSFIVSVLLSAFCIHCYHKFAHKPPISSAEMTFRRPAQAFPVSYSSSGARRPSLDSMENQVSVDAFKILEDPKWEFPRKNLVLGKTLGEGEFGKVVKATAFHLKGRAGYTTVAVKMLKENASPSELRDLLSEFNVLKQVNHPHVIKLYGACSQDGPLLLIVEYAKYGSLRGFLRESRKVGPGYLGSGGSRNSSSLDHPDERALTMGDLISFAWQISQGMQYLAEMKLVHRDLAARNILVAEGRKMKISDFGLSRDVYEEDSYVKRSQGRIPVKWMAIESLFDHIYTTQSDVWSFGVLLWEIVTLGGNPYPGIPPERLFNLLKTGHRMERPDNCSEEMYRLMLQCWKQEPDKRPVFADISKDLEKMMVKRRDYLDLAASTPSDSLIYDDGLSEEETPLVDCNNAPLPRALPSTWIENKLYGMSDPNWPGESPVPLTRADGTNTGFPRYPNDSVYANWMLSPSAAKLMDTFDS

Which IC50 [1, 3] does the source give for `CCNC(=O)c1cnn2cc(-c3cnn(C)c3)cc(-c3ccc(N4CCN(c5ccc(OC)nc5)CC4)nc3)c12` [Compound 3, N-ethyl-4-(6-(4-(6-methoxypyridin-3-yl)piperazin-1-yl)pyridin-3-yl)-6-(1-methyl-1H-pyridinoxazol-4-yl)H-pyrazolo[1,5-a]pyridine-3-carboxamide] here?
Its IC50 is > 10000 nM.

Which IC50 [1, 3] does the source give for `COc1ccc(CN2CCN(c3ccc(-c4cc(-c5cnn(C)c5)cn5ncc(NC(C)=O)c45)cn3)CC2)cn1` [Compound 4, N-(4-(6-(4-((6-methoxypyridin-3-yl)methyl)piperazin-1-yl)pyridin-3-yl)-6-(1-methyl-1H-pyrazol-4-yl)pyrazol[1,5-a]pyridin-3-yl)acetamide] here?
Its IC50 is 6590 nM.

For `COc1ccc(CN2CCN(c3ccc(-c4cc(-c5cnn(C)c5)cn5ncc(C(=O)NC(C)C)c45)cn3)CC2)cn1` [Compound 5], which IC50 [1, 3] is on record?
The IC50 was > 10000 nM.

With `CNC(=O)c1cnn2cc(-c3cnn(C)c3)cc(-c3ccc(N4CCN(Cc5ccc(OC)nc5)CC4)nc3)c12` [Compound 6] as the compound, how does the IC50 [1, 3] read?
Its IC50 is 678 nM.

`CNC(=O)Nc1cnn2cc(-c3cnn(C)c3)cc(-c3ccc(N4CCN(Cc5ccc(OC)nc5)CC4)nc3)c12` [Compound 9, 1-(4-(6-(4-((6-methoxypyridin-3-yl)methyl)piperazin-1-yl)pyridin-3-yl)-6-(1-methyl-1H -pyrazol-4-yl)pyrazolo[1,5-a]pyridin-3-yl)-3-methylurea] was tested. Which IC50 [1, 3] did it give?
The IC50 was > 10000 nM.

How did the IC50 [1, 3] turn out when `COc1ccc(CN2CCN(c3ccc(-c4cc(-c5cnn(C)c5)cn5ncc(NC(=O)C6CC6)c45)cn3)CC2)cn1` [Compound 10, N-(4-(6-(4-((6-methoxypyridin-3-yl)methyl)piperazin-1-yl)pyridin-3-yl)-6-(1-methyl-1H-pyrazol-4-yl)pyrazolo[1,5-a]pyridin-3-yl)cyclopropanecarboxamide] was run?
The IC50 was > 10000 nM.

For `COc1ccc(CN2CCN(c3ccc(-c4cc(-c5cnn(C)c5)cn5ncc(NC(=O)c6ccccc6)c45)cn3)CC2)cn1` [Compound 11, N-(4-(6-(4-((6-methoxypyridin-3-yl)methyl)piperazin-1-yl)pyridin-3-yl)-6-(1-methyl-1H-pyrazol-4-yl)pyrazolo[1,5-a]pyridin-3-yl)benzamide], which IC50 [1, 3] is on record?
Its IC50 is > 10000 nM.

How did the IC50 [1, 3] turn out when `COc1ccc(CN2CCN(c3ccc(-c4cc(-c5cnn(C)c5)cn5ncc(NC(=O)c6cncn6C)c45)cn3)CC2)cn1` [Compound 12, N-(4-(6-(4-((6-methoxypyridin-3-yl)methyl)piperazin-1-yl)pyridin-3-yl)-6-(1-methyl-1H-pyrazol-4-yl)pyrazolo[1,5-a]pyridin-3-yl)-1-methyl-1H-imidazole-5-carboxamide] was run?
The IC50 was > 10000 nM.

For `COc1ccc(CN2CCN(c3ccc(-c4cc(OCCN5CC6(COC6)C5)cn5ncc(C#N)c45)cn3)CC2)cn1` [Compound 13, 6-(2-(2-oxa-6-azaspiro[3.3]hept-6-yl)ethoxy)-4-(6-(4-((6-methoxypyridin-3-yl)methyl)piperazin-1-yl)pyridin-3-yl)pyrazolo[1,5-a]pyridine-3-carbonitrile], which IC50 [1, 3] is on record?
Its IC50 is 0.8 nM.

And the GI50 [2]?
Its GI50 is 224 nM.

Which results are given for `COc1ccc(CN2CCN(c3ccc(-c4cc(OCCN5CCC6(CCOCC6)CC5)cn5ncc(C#N)c45)cn3)CC2)cn1` [Compound 14, 6-(2-(3-oxa-9-azaspiro[5.5]undec-9-yl)ethoxy)-4-(6-(4-((6-methoxypyridine-3-yl)methyl)piperazin-1-yl)pyridin-3-yl)pyrazolo[1,5-a]pyridine-3-carbonitrile]?
IC50 [1, 3]: 1.6 nM; GI50 [2]: 260 nM

How did the IC50 [1, 3] turn out when `COc1ccc(CN2CCN(c3ccc(-c4cc(OCCN5CC6CCC5C6)cn5ncc(C#N)c45)cn3)CC2)cn1` (stereo not shown) [Compound 15, 6-(2-(2-azabicyclo[2.2.1]hept-2-yl)ethoxy)-4-(6-(4-((6-methoxypyridin-3-yl)methyl)piperazin-1-yl)pyridin-3-yl)pyrazolo[1,5-a]pyridine-3-carbonitrile] was run?
Its IC50 is 1.4 nM.

What about the GI50 [2] of the same compound?
Its GI50 is 225 nM.

Which results are given for `COc1ccc(CN2CCN(c3ccc(-c4cc(OCCN5CC6CC6C5)cn5ncc(C#N)c45)cn3)CC2)cn1` (stereo not shown) [Compound 16, 6-(2-(3-azabicyclo[3.1.0]hex-3-yl)ethoxy)-4-(6-(4-((6-methoxypyridin-3-yl)methyl)piperazin-1-yl)pyridin-3-yl)pyrazolo[1,5-a]pyridine-3-carbonitrile]?
IC50 [1, 3]: 1.1 nM; GI50 [2]: 203 nM

What does the source list for `COc1ccc(CN2C3CC2CN(c2cnc(-c4cc(OCCN5CC6CCCNC6C5)cn5ncc(C#N)c45)cn2)C3)cn1` (stereo not shown) [Compound 17, 4-(5-(6-((6-methoxypyridin-3-yl)methyl)-3,6-diazabicyclo[3.1.1]hept-3-yl)pyrazin-2-yl)-6-(2-(octahydro-6H-pyrrole[3,4-b]pyridin-6-yl)ethoxy)pyrazolo[1,5-a]pyridine-3-carbonitrile]?
IC50 [1, 3]: 0.32 nM; GI50 [2]: 61.1 nM

`COc1ccc(CN2C3CC2CN(c2cnc(-c4cc(OCCN5CCC6NCCC6C5)cn5ncc(C#N)c45)cn2)C3)cn1` (stereo not shown) [Compound 18, 4-(5-(6-((6-methoxypyridin-3-yl)methyl)-3,6-diazabicyclo[3.1.1]hept-3-yl)pyrazin-2-yl)-6-(2-(octahydro-5H-pyrrolo[3,2-c]pyridin-5-yl)ethoxy)pyrazolo[1,5-a]pyridine-3-carbonitrile] was tested. Which IC50 [1, 3] did it give?
Its IC50 is 0.5 nM.

What about the GI50 [2] of the same compound?
The GI50 was 123 nM.

Which results are given for `COc1ccc(CN2C3CC2CN(c2cnc(-c4cc(OCCN5CC6(CCCNC6)C5)cn5ncc(C#N)c45)cn2)C3)cn1` [Compound 19, 6-(2-(2,6-diazaspiro[3.5]non-2-yl)ethoxy)-4-(5-(6-((6-methoxypyridin-3-yl)methyl)-3,6-diazabicyclo[3.1.1]heptan-3-yl)pyrazin-2-yl)pyrazolo[1,5-a]pyridine-3-carbonitrile]?
IC50 [1, 3]: 0.77 nM; GI50 [2]: 183 nM

What does the source list for `COc1ccc(CN2C3CC2CN(c2cnc(-c4cc(OCCN5CCC6(COC6)C5)cn5ncc(C#N)c45)cn2)C3)cn1` [Compound 20, 6-(2-(2-oxa-6-azaspiro[3.4]oct-6-yl)ethoxy)-4-(5-(6-((6-methoxypyridin-3-yl)methyl)-3,6-diazabicyclo[3.1.1]heptan-3-yl)pyrazin-2-yl)pyrazolo[1,5-a]pyridine-3-carbonitrile]?
IC50 [1, 3]: 2.63 nM; GI50 [2]: 19.1 nM

Which results are given for `COc1ccc(CN2C3CC2CN(c2cnc(-c4cc(OCCN5CCC6(CCNC6)CC5)cn5ncc(C#N)c45)cn2)C3)cn1` [Compound 21]?
IC50 [1, 3]: 0.72 nM; GI50 [2]: 192 nM

With `CCNC(=O)Oc1cc(-c2cnc(N3CC4CC(C3)N4Cc3ccc(OC)nc3)cn2)c2c(C#N)cnn2c1` [Compound 42, 3-cyano-4-(5-(6-((6-methoxypyridin-3-yl)methyl)-3,6-diazabicyclo[3.1.1]heptan-3-yl)pyrazin-2-yl)pyrazolo[1,5-a]pyridin-6-ylethylcarbamate] as the compound, how does the IC50 [1] read?
The IC50 was 9.2 nM.

`COc1ccc(CN2C3CC2CN(c2cnc(-c4cc(NCC5CC5)cn5ncc(C#N)c45)cn2)C3)cn1` [Compound 53] was tested. Which IC50 [1, 3] did it give?
The IC50 was 5.54 nM.

How did the IC50 [1, 3] turn out when `COc1ccc(CN2C3CC2CN(c2ccc(-c4cc(NCC5CCOCC5)cn5ncc(C#N)c45)cn2)C3)cn1` [Compound 54, 4-(6-(6-((6-methoxypyridin-3-yl)methyl)-3,6-diazabicyclo[3.1.1]heptyl-3-yl)pyridin-3-yl)-6-(((-2H-pyran-4-yl)methyl)amino)pyrazolo[1,5-a]pyridine-3-carbonitrile] was run?
The IC50 was 2.76 nM.

`COc1ccc(CN2C3CC2CN(c2cnc(-c4cc(N(C)CCN(C)C)cn5ncc(C#N)c45)cn2)C3)cn1` [Compound 58, 6-((2-(dimethylamino)ethyl)(methyl)amino)-4-(5-(6-((6-methoxypyridin-3-yl)methyl)-3,6-diazabicyclo[3.1.1]heptan-3-yl)pyrazin-2-yl)pyrazolo[1,5-a]pyridine-3-carbonitrile] was tested. Which IC50 [1, 3] did it give?
The IC50 was 10.4 nM.

With `COc1ccc(CN2C3CC2CN(c2ccc(-c4cc(NCC5CCCCC5)cn5ncc(C#N)c45)cn2)C3)cn1` [Compound 60, 6-((cyclohexylmethyl)amino)-4-(6-(6-((6-methoxypyridin-3-yl)methyl)-3,6-diazabicyclo[3.1.1]heptan-3-yl)pyridin-3-yl)pyrazolo[1,5-a]pyridine-3-carbonitrile] as the compound, how does the IC50 [1, 3] read?
The IC50 was 29.6 nM.

`COc1ccc(CN2C3CC2CN(c2ccc(-c4cc(NCC5CCN(C)CC5)cn5ncc(C#N)c45)cn2)C3)cn1` [Compound 64] was tested. Which IC50 [1, 3] did it give?
The IC50 was 4.83 nM.

Which IC50 [1, 3] does the source give for `COc1ccc(CN2C3CC2CN(c2ccc(-c4cc(NCC5CCOC5)cn5ncc(C#N)c45)cn2)C3)cn1` (stereo not shown) [Compound 65, 4-(6-(6-((6-methoxypyridin-3-yl)methyl)-3,6-diazabicyclo[3.1.1]heptyl-3-yl)pyridin-3-yl)-6-(((tetrahydrofuran-3-yl)methyl)amino)pyrazolo[1,5-a]pyridine-3-carbonitrile] here?
The IC50 was 6.05 nM.

How did the GI50 [2] turn out when `COc1ccc(CN2C3CC2CN(c2ccc(-c4cc(OCC(C)(C)O)cn5ncc(C#N)c45)cn2)C3)cn1` [LOXO-292, reference compound] was run?
Its GI50 is 7.08 nM.
